According to patent publication US7632972B2, “Compounds and methods for treatment of cancer and modulation of programmed cell death for melanoma and other cancer cells” (The Board of Trustees of the University of Illionis, priority 2003, dated 2009):

What was measured:
SK-MEL-28 = assay: NCI 60 cell line screen (SRB), Melanoma; format: cell-based, human
Description: (§1) The operation of this screen utilizes 60 different human tumor cell lines, representing leukemia, melanoma and cancers of the lung, colon, brain, ovary, breast, prostate, and kidney. The aim is to prioritize for further evaluation, synthetic compounds or natural product samples showing selective growth inhibition or cell killing of particular tumor cell lines. This screen is unique in that the complexity of a 60 cell line dose response produced by a given compound results in a biological response pattern which can be utilized in pattern recognition algorithms. Using these algorithms, it is possible to assign a putative mechanism of action to a test compound, or to determine that the response pattern is unique and not similar to that of any of the standard prototype compounds included in the NCl database (see DTP Overview tab). In addition, following characterization of various cellular molecular targets in the 60 cell lines, it may be possible to select compounds most likely to interact with a specific molecular target.
(§2) The human tumor cell lines of the cancer screening panel are grown in RPMI 1640 medium containing 5% fetal bovine serum and 2 mM L-glutamine. For a typical screening experiment, cells are inoculated into 96 well microtiter plates in 100 μL at plating densities ranging from 5,000 to 40,000 cells/well depending on the doubling time of individual cell lines. After cell inoculation, the microtiter plates are incubated at 37° C., 5% CO2, 95% air and 100% relative humidity for 24 h prior to addition of experimental drugs.
(§3) After 24 h, two plates of each cell line are fixed in situ with TCA, to represent a measurement of the cell population for each cell line at the time of drug addition (Tz). Experimental drugs are solubilized in dimethyl sulfoxide at 400-fold the desired final maximum test concentration and stored frozen prior to use. At the time of drug addition, an aliquot of frozen concentrate is thawed and diluted to twice the desired final maximum test concentration with complete medium containing 50 μg/ml gentamicin. Additional four, 10-fold or ½ log serial dilutions are made to provide a total of five drug concentrations plus control. Aliquots of 100 μl of these different drug dilutions are added to the appropriate microtiter wells already containing 100 μl of medium, resulting in the required final drug concentrations.
(§4) Following drug addition, the plates are incubated for an additional 48 h at 37° C., 5% CO2, 95% air, and 100% relative humidity. For adherent cells, the assay is terminated by the addition of cold TCA. Cells are fixed in situ by the gentle addition of 50 μl of cold 50% (w/v) TCA (final concentration, 10% TCA) and incubated for 60 minutes at 4° C. The supernatant is discarded, and the plates are washed five times with tap water and air dried. Sulforhodamine B (SRB) solution (100 μl) at 0.4% (w/v) in 1% acetic acid is added to each well, and plates are incubated for 10 minutes at room temperature. After staining, unbound dye is removed by washing five times with 1% acetic acid and the plates are air dried. Bound stain is subsequently solubilized with 10 mM trizma base, and the absorbance is read on an automated plate reader at a wavelength of 515 nm. For suspension cells, the methodology is the same except that the assay is terminated by fixing settled cells at the bottom of the wells by gently adding 50 μl of 80% TCA (final concentration, 16% TCA). Using the seven absorbance measurements [time zero, (Tz), control growth, (C), and test growth in the presence of drug at the five concentration levels (Ti)], the percentage growth is calculated at each of the drug concentrations levels. Percentage growth inhibition is calculated as: [(Ti−Tz)/(C−Tz)]×100 for concentrations for which Ti>/=Tz [(Ti−Tz)/Tz]×100 for concentrations for which Ti<Tz.
(§5) Three dose response parameters are calculated for each experimental agent. […]

UACC-62 = assay: NCI 60 cell line screen (SRB), Melanoma; format: cell-based, human
Description: as §1, §2, §3, §4, §5

SK-MEL-2 = assay: NCI 60 cell line screen (SRB), Melanoma; format: cell-based, human
Description: as §1, §2, §3, §4, §5

SW-620 = assay: NCI 60 cell line screen (SRB), Colon Cancer; format: cell-based, human
Description: as §1, §2, §3, §4, §5

KM12 = assay: NCI 60 cell line screen (SRB), Colon Cancer; format: cell-based, human
Description: as §1, §2, §3, §4, §5

HCT-116 = assay: NCI 60 cell line screen (SRB), Colon Cancer; format: cell-based, human
Description: as §1, §2, §3, §4, §5

COLO 205 = assay: NCI 60 cell line screen (SRB), Colon Cancer; format: cell-based, human
Description: as §1, §2, §3, §4, §5

HCT-15 = assay: NCI 60 cell line screen (SRB), Colon Cancer; format: cell-based, human
Description: as §1, §2, §3, §4, §5

COc1cccc(CCNC(=O)CC(c2ccccc2)(c2ccccc2)c2ccccc2)c1 [Compound Z3]
GI50 (SK-MEL-28; SK-MEL-28): > 100 µM | TGI (SK-MEL-28; SK-MEL-28): >1.00E−04 | Percent Growth (SK-MEL-28; SK-MEL-28, Log10 Concentration −4.0): 94% | Percent Growth (SK-MEL-28; SK-MEL-28, Log10 Concentration −5.0): 103% | Percent Growth (SK-MEL-28; SK-MEL-28, Log10 Concentration −6.0): 96% | Percent Growth (SK-MEL-28; SK-MEL-28, Log10 Concentration −7.0): 105% | Percent Growth (SK-MEL-28; SK-MEL-28, Log10 Concentration −8.0): 84% | CC50 (SK-MEL-28; SK-MEL-28, read-out: LC50 (the source's name)): > 100 µM | GI50 (UACC-62; UACC-62): 0.613 µM | TGI (UACC-62; UACC-62): >1.00E−04 | Percent Growth (UACC-62; UACC-62, Log10 Concentration −4.0): 22% | Percent Growth (UACC-62; UACC-62, Log10 Concentration −5.0): 14% | Percent Growth (UACC-62; UACC-62, Log10 Concentration −6.0): 41% | Percent Growth (UACC-62; UACC-62, Log10 Concentration −7.0): 83% | Percent Growth (UACC-62; UACC-62, Log10 Concentration −8.0): 94% | CC50 (UACC-62; UACC-62, read-out: LC50 (the source's name)): > 100 µM | GI50 (SK-MEL-2; SK-MEL-2): 4.41 µM | TGI (SK-MEL-2; SK-MEL-2): >1.00E−04 | Percent Growth (SK-MEL-2; SK-MEL-2, Log10 Concentration −4.0): 18% | Percent Growth (SK-MEL-2; SK-MEL-2, Log10 Concentration −5.0): 24% | Percent Growth (SK-MEL-2; SK-MEL-2, Log10 Concentration −6.0): 97% | Percent Growth (SK-MEL-2; SK-MEL-2, Log10 Concentration −7.0): 85% | Percent Growth (SK-MEL-2; SK-MEL-2, Log10 Concentration −8.0): 80% | CC50 (SK-MEL-2; SK-MEL-2, read-out: LC50 (the source's name)): > 100 µM | GI50 (HL-60(TB)): 17.5 µM | TGI (HL-60(TB)): >1.00E−04 | CC50 (HL-60(TB); read-out: LC50): > 100 µM | GI50 (SW-620; SW-620): 85.2 µM | TGI (SW-620; SW-620): >1.00E−04 | Percent Growth (SW-620; SW-620, Log10 Concentration −4.0): 49% | Percent Growth (SW-620; SW-620, Log10 Concentration −5.0): 64% | Percent Growth (SW-620; SW-620, Log10 Concentration −6.0): 97% | Percent Growth (SW-620; SW-620, Log10 Concentration −7.0): 105% | Percent Growth (SW-620; SW-620, Log10 Concentration −8.0): 95% | CC50 (SW-620; SW-620, read-out: LC50 (the source's name)): > 100 µM | GI50 (KM12; KM12): 4.75 µM | TGI (KM12; KM12): >1.00E−04 | Percent Growth (KM12; KM12, Log10 Concentration −4.0): 14% | Percent Growth (KM12; KM12, Log10 Concentration −5.0): 25% | Percent Growth (KM12; KM12, Log10 Concentration −6.0): 101% | Percent Growth (KM12; KM12, Log10 Concentration −7.0): 107% | Percent Growth (KM12; KM12, Log10 Concentration −8.0): 111% | CC50 (KM12; KM12, read-out: LC50 (the source's name)): > 100 µM | GI50 (HCT-116; HCT-116): 2.58 µM | TGI (HCT-116; HCT-116): 2.67E−05 | Percent Growth (HCT-116; HCT-116, Log10 Concentration −4.0): −22% | Percent Growth (HCT-116; HCT-116, Log10 Concentration −5.0): 16% | Percent Growth (HCT-116; HCT-116, Log10 Concentration −6.0): 74% | Percent Growth (HCT-116; HCT-116, Log10 Concentration −7.0): 91% | Percent Growth (HCT-116; HCT-116, Log10 Concentration −8.0): 97% | CC50 (HCT-116; HCT-116, read-out: LC50 (the source's name)): > 100 µM | GI50 (COLO 205; COLO 205): 12.8 µM | TGI (COLO 205; COLO 205): >1.00E−04 | Percent Growth (COLO 205; COLO 205, Log10 Concentration −4.0): 27% | Percent Growth (COLO 205; COLO 205, Log10 Concentration −5.0): 53% | Percent Growth (COLO 205; COLO 205, Log10 Concentration −6.0): 106% | Percent Growth (COLO 205; COLO 205, Log10 Concentration −7.0): 117% | Percent Growth (COLO 205; COLO 205, Log10 Concentration −8.0): 99% | CC50 (COLO 205; COLO 205, read-out: LC50 (the source's name)): > 100 µM | GI50 (HCT-15; HCT-15): > 100 µM | TGI (HCT-15; HCT-15): >1.00E−04 | Percent Growth (HCT-15; HCT-15, Log10 Concentration −4.0): 57% | Percent Growth (HCT-15; HCT-15, Log10 Concentration −5.0): 62% | Percent Growth (HCT-15; HCT-15, Log10 Concentration −6.0): 86% | Percent Growth (HCT-15; HCT-15, Log10 Concentration −7.0): 99% | Percent Growth (HCT-15; HCT-15, Log10 Concentration −8.0): 103% | CC50 (HCT-15; HCT-15, read-out: LC50 (the source's name)): > 100 µM
